{"source": "ChEMBL document CHEMBL1201862", "about": "“PubChem BioAssay data set” (2004)", "key": {"[1]": {"target": "Mitogen-activated protein kinase kinase kinase kinase 2 (Homo sapiens, UniProt Q12851)", "sequence (Q12851 whole entry)": "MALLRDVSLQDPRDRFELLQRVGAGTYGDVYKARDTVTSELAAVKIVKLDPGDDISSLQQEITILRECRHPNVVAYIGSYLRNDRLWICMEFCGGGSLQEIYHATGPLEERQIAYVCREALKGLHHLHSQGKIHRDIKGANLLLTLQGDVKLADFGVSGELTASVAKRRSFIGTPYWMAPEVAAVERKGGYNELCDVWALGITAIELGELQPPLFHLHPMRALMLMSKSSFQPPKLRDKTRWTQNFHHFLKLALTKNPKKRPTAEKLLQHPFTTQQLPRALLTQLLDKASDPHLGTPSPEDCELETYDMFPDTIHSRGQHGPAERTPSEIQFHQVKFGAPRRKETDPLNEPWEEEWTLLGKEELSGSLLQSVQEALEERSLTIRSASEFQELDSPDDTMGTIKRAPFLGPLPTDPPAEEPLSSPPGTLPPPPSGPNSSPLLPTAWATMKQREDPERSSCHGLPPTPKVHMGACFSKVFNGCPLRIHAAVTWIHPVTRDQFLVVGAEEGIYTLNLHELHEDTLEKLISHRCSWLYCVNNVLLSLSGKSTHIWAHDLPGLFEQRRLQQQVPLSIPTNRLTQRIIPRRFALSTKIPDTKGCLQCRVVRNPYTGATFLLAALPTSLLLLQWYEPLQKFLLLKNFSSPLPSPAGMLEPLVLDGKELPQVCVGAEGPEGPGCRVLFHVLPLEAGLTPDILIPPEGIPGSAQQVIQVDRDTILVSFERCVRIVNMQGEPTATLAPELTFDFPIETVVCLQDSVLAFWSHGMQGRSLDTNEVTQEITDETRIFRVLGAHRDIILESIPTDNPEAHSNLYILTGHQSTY", "type": "functional"}, "[2]": {"target": "Dual specificity protein kinase CLK4 (Homo sapiens, UniProt Q9HAZ1)", "sequence (Q9HAZ1 whole entry)": "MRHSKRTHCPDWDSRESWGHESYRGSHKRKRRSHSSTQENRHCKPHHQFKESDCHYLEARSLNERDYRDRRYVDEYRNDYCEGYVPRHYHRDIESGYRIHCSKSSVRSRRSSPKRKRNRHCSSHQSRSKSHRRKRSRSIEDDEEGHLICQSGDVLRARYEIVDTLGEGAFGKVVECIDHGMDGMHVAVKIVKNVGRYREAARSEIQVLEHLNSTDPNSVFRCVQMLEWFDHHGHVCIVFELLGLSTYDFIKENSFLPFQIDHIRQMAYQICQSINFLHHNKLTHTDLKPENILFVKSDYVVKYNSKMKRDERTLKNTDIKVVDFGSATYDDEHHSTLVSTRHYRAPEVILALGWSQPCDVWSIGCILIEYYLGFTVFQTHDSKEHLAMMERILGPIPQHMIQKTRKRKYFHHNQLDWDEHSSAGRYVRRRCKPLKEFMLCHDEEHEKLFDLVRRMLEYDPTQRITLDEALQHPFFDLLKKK", "type": "functional"}, "HEK293": {"test_system": "HEK293", "experiment": "inhibitors of LMP1-driven NF-kB reporter, dose response, cell-based, HEK293, luciferase, cherry-pick (AID 588343)", "type": "functional", "conditions": "Homo sapiens"}, "[3]": {"target": "Latent membrane protein 1 (Human herpesvirus 4 (strain B95-8), UniProt P03230)", "sequence (P03230 whole entry)": "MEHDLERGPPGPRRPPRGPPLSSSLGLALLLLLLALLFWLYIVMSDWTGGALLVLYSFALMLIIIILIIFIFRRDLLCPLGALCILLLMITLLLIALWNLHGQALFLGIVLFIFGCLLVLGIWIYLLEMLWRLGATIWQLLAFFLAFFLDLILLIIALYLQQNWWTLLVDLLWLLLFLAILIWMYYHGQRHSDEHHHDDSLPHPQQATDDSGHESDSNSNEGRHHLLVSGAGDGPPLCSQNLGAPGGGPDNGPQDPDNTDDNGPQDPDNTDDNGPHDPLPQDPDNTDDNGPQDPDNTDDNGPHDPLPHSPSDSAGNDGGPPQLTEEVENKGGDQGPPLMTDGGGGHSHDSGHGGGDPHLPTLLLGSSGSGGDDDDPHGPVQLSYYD", "experiment": "TES1-eGFP NF-kB reporter inhibition versus Tet-On dsRED, dose response, selectivity assay for LMP1 NF-kB inhibitor project, imaging, HEK293T, dual-color eGFP/dsRED, cherry-picks (AID 588398)", "type": "functional, cell-based"}, "[4]": {"target": "T1, Corticotropin-releasing factor receptor 2/Corticotropin-releasing factor-binding protein (Homo sapiens, UniProt P24387+Q13324)", "T1 sequence (Q13324 whole entry)": "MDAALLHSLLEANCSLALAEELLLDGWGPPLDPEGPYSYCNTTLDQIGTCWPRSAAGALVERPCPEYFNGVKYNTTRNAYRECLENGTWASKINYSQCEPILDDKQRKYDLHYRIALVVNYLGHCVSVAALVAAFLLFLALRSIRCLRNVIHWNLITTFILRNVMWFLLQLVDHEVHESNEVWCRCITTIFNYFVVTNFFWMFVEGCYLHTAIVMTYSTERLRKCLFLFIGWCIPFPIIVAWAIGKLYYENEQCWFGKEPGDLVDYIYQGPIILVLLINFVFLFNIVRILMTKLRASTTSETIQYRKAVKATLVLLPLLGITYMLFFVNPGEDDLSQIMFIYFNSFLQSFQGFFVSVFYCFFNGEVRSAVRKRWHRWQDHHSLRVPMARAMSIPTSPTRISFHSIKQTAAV", "T1 sequence (P24387 whole entry)": "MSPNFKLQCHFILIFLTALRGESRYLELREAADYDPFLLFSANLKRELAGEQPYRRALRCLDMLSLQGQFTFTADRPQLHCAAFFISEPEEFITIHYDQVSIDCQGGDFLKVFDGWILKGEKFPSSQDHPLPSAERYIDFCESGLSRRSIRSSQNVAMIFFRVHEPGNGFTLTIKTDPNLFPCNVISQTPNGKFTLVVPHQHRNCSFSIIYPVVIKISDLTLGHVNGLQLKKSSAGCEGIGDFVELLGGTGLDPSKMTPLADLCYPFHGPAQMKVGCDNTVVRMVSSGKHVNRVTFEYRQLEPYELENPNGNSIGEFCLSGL", "experiment": "activators of CRF receptor 2 with binding protein – uHTS hits, confirmation (AID 602473)", "type": "functional", "conditions": "read-out: EC50_Mean"}, "[5]": {"target": "Luciferin 4-monooxygenase (Photinus pyralis, UniProt P08659)", "sequence (P08659 whole entry)": "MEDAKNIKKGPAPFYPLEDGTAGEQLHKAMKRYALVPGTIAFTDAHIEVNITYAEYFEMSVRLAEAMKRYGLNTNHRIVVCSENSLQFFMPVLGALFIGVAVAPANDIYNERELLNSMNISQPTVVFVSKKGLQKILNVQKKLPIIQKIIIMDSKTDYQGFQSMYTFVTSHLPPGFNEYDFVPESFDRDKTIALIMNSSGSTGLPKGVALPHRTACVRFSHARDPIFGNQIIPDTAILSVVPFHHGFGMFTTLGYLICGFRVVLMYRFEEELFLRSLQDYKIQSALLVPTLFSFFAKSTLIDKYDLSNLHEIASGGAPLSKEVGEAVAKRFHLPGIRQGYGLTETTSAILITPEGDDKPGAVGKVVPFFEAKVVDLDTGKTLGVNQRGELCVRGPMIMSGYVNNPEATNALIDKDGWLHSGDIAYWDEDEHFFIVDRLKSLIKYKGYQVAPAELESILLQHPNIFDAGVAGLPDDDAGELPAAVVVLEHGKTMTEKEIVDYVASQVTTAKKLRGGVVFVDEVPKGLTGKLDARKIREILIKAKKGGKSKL", "experiment": "firefly luciferase enzyme inhibitors, dose response, biochemical, luminescence (AID 1891)"}, "[6]": {"experiment": "Luminescence Cell-Based Dose Confirmation HTS to Identify Inhibitors of Platelet Dense Granule Release. [Related pubchem assays: 1663 (Primary HTS), 1678 (Summary of Project)]", "type": "functional"}, "[7]": {"experiment": "ADP-Glo luciferase interference without Dyrk1A, dose response, artefact control for Dyrk1A inhibitor project, biochemical, luminescence, cherry-pick, set 02 (AID 588348)"}, "[8]": {"target": "Dual specificity tyrosine-phosphorylation-regulated kinase 1A (Rattus norvegicus, UniProt Q63470)", "type": "biochemical, Homo sapiens"}, "[9]": {"target": "T2, Oxysterols receptor LXR-beta (Homo sapiens, UniProt P55055)", "T2 sequence (P55055 whole entry)": "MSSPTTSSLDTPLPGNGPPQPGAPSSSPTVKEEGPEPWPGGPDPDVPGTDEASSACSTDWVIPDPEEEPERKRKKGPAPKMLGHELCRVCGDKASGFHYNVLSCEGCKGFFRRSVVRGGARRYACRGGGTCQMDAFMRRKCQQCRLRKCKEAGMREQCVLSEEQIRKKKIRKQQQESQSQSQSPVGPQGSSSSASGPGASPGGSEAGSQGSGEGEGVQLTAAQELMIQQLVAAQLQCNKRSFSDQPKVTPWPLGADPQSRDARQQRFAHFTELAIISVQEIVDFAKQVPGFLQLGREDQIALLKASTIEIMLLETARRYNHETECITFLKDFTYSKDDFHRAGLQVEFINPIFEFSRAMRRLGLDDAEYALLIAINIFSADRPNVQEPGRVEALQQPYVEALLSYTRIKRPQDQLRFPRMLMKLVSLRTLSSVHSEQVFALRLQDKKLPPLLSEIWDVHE", "type": "functional, cell-based"}, "cells [10]": {"experiment": "cells"}, "[11]": {"experiment": "inhibitors of firefly luciferase expression or activity, dose response, H4 neuroglioma cells, luminescence (AID 1990)", "type": "functional, cell-based"}, "[12]": {"experiment": "luciferase reporter signal reduction – luminescence, H4-C neuroglioblastoma cells, dose response (AID 2458);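 note: H4 neuroglioblastoma cells stably carrying a luciferase reporter gene fusion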", "type": "functional, cell-based"}, "BJ [13]": {"test_system": "BJ", "experiment": "cytotoxicity toward BJ-TERT fibroblasts, dose response, cell-based, RAS-independent, luminescence (AID 1933)", "type": "functional", "conditions": "Homo sapiens"}, "cells [14]": {"experiment": "cells", "type": "functional, cell-based"}, "[15]": {"experiment": "Luminescence Cell-Based Dose Response HTS to Identify Inhibitors of 5'UTR Stem-Loop Driven Prion Protein mRNA Translation in H4 Neuroglioblastoma Cells. [Related pubchem assays: 1827 (Project Summary), 1813 (Primary HTS)]", "type": "functional"}, "[16]": {"experiment": "inhibitors of SNCA 5'UTR-driven reporter translation, confirmation, H4 neuroglioma cells, luminescence (AID 1988)", "type": "functional, cell-based"}, "BJ [17]": {"test_system": "BJ", "experiment": "cells", "type": "functional, cell-based", "conditions": "Homo sapiens"}, "[18]": {"experiment": "Luminescence-based dose response cell-based high throughput screening assay for cytotoxic compounds using the IEC-6 intestinal epithelial cell line. [Related pubchem assays: 1858 (Summary AID.), 1825 (Counterscreen.), 1907 (Confirmation screen.)]", "type": "functional"}, "BJ [19]": {"test_system": "BJ", "experiment": "cytotoxicity toward BJ-TERT-LT-ST fibroblasts, dose response, cell-based, RAS-independent, luminescence (AID 1935);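 note: BJ fibroblasts immortalized with TERT plus LT and ST oncogenes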", "type": "functional", "conditions": "Homo sapiens"}, "[20]": {"experiment": "cytotoxicity toward DRD oncogenic fibroblasts, dose response, cell-based, non-viral oncogenic, luminescence (AID 1934)", "type": "functional", "conditions": "Homo sapiens"}, "[21]": {"experiment": "inhibitors of SNCA 5'UTR-driven translation, confirmation, luminescence, H4 neuroglioblastoma cells, dose confirmation (AID 2454);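 note: H4 neuroglioblastoma cells carrying an alpha-synuclein 5'UTR luciferase reporter; potency for inhibition of the luciferase signal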", "type": "functional, cell-based"}, "BJ [22]": {"test_system": "BJ", "experiment": "cytotoxicity toward Ras-transformed BJeLR fibroblasts, dose response, cell-based, alamar blue fluorescence, cherrypicked samples (AID 2631)", "type": "functional", "conditions": "Homo sapiens"}}, "note": "Active and inactive are the calls of the source. Cut-off read from the data, not from the text of the source, for most assays here: actives have a measured EC50 and inactives only a lower limit.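 Throughout, for IC50: cell viability measured after two days of compound exposure.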"}
{"smiles": "O=C1CC(c2ccc(Cl)cc2Cl)Cc2[nH]c3ccc(Cl)cc3c(=O)c21", "note": "(stereo not drawn)", "values": [{"measurement": "Ki", "setting": "[1]", "value": "5010 nM (active)"}, {"measurement": "Ki", "setting": "[2]", "value": "7940 nM (active)"}]}
{"smiles": "CC(C)(C)c1ccc(C(=O)N2CCC(=O)N(C(CO)Cc3ccccc3)CC2)cc1", "note": "(stereo not drawn)", "values": [{"measurement": "AC50", "setting": "HEK293", "value": "173000 nM (active)"}, {"measurement": "AC50", "setting": "[3]", "value": "347000 nM (active)"}, {"measurement": "EC50", "setting": "[4]", "value": "> 53000 nM (inactive)"}]}
{"smiles": "Cc1ccccc1C(=O)O/N=C(\\N)c1ccccc1", "values": [{"measurement": "EC50", "setting": "[5]", "value": "3420 nM (active)"}, {"measurement": "EC50", "setting": "[6]", "value": "2720 nM (active)"}, {"measurement": "AC50", "setting": "[7]", "value": "60900 nM (active)"}, {"measurement": "AC50", "setting": "[8]", "value": "62500 nM (active)"}, {"measurement": "EC50", "setting": "[9]", "value": "> 67500 nM (inactive)"}, {"measurement": "EC50", "setting": "cells [10]", "value": "> 67500 nM (inactive)"}]}
{"smiles": "C#CCOc1ccc(C2C3=C(O)OCC3=Nc3cc4c(cc32)OCO4)cc1OC", "note": "(stereo not drawn)", "values": [{"measurement": "EC50", "setting": "[11]", "value": "< 100 nM (active)"}, {"measurement": "EC50", "setting": "[12]", "value": "234 nM (active)"}, {"measurement": "EC50", "setting": "BJ [13]", "value": "3140 nM (inconclusive)"}, {"measurement": "EC50", "setting": "cells [14]", "value": "371 nM (active)"}, {"measurement": "EC50", "setting": "[15]", "value": "< 100 nM (active)"}, {"measurement": "EC50", "setting": "[16]", "value": "< 100 nM (active)"}, {"measurement": "EC50", "setting": "BJ [17]", "value": "2720 nM (inconclusive)"}, {"measurement": "IC50", "setting": "[18]", "value": "47.1 nM (active)"}, {"measurement": "EC50", "setting": "BJ [19]", "value": "942 nM (active)"}, {"measurement": "EC50", "setting": "[20]", "value": "900 nM (inconclusive)"}, {"measurement": "EC50", "setting": "[21]", "value": "231 nM (active)"}, {"measurement": "EC50", "setting": "BJ [22]", "value": "< 104 nM (active)"}]}
